Reference: publication PMC5217299, “Triptolide Induces hepatotoxicity via inhibition of CYP450s in Rat liver microsomes” (BMC Complementary and Alternative Medicine, 2017)

System: T1, CYP3A
T1 construct: gene Cyp3a1; native isoenzyme mixture in liver microsomes of female SD rats
Experiment: UHPLC-MS/MS of 1-hydroxymidazolam formation, cocktail probe, Michaelis-Menten fit
Conditions: liver microsomes of vehicle control rats; cocktail of six substrates together; NADPH regeneration system, pH 7.4, 37 °C

Cc1ncc2n1-c1ccc(Cl)cc1C(c1ccccc1F)=NC2 [midazolam]
Km: 1.99 ± 0.267 µM
